Data from patent US12157882B2, “Lactobacillus plantarum strain ATG-K2, ATG-K6 or ATG-K8, and composition for preventing or treating vaginitis comprising same” (ATOGEN CO., LTD, priority 2018, dated 2024).

Columns and labels:
[1] = tested on: sheep blood; format: cell-based
Description: In order to evaluate the presence or absence of hemolysis of lactic-acid bacteria in relation to safety of probiotics, K2, K6 and K8 strains were inoculated into a tryptic soybean agar (TSA, Difco Laboratories, USA) containing 5% sheep blood, and were then cultured at 37° C. for about 24 to 48 hr.

[2] = tested on: Candida albicans KCTC7678 (CA); experiment: Coaggregation of lactic-acid bacteria on vaginitis pathogen; format: cell-based; details: at 8 hr
Description: (§1) Briefly, lactic-acid bacteria and vaginitis pathogens were centrifuged at 13,000 rpm for 5 min and the supernatant was decanted, after which the precipitated microorganism cells were washed using 1×PBS. After washing was repeated twice, the microorganisms were each suspended using 1×PBS until an absorbance OD600 of 1.0 was obtained. The lactic-acid bacteria suspension and the vaginitis pathogens were mixed at the same volume ratio, homogenized through vortexing, and allowed to stand, after which the supernatant of the mixed solution was carefully obtained at 1, 4, and 8 hr, and the absorbance thereof was measured. The suspension without mixing the microorganisms was used as a control. Based on the measured absorbance, coaggregation was calculated using the following equation. Here, ODpatho represents the absorbance of the vaginitis pathogen, ODLAB represents the absorbance of the lactic-acid bacteria, and ODmix represents the absorbance of the mixed solution of microorganisms. Coaggregation (%)={(ODpatho+ODLAB)/2−ODmix}/(ODpatho+ODLAB)/2

[3] = tested on: Gardnerella vaginalis KCTC5096 (GV); experiment: as above; format: cell-based; details: time given only for CA (8 hr)
Description: as §1

[4] = ABTS radical-scavenging experiment with lactic-acid bacteria lysate; format: biochemical; details: for ABTS radical-scavenging activity: lactic-acid bacteria lysate, dark reaction 10 min, 734 nm; for antioxidant activity, ranking among strains: lysate, at 10 mg and above
Description: In order to evaluate the antioxidant activity of each of the lactic-acid bacteria strains, a radical-scavenging experiment was conducted using 2,2′-azino-bis(3-ethylbenzthiazoline-6-sulfonic acid) (ABTS, Sigma-Aldrich, Germany). Briefly, lactic-acid bacteria were cultured for about 24 hr, allowed to react with lysozyme (Sigma-Aldrich, Germany) for 2 hr at 37° C., and lysed through sonication to obtain each lactic-acid bacteria lysate. The solid content thereof was measured using a water content analyzer, and a stock solution was adjusted to a concentration of 50 mg/ml. To prepare ABTS, 14 mM ABTS stock solution and 4.9 mM potassium persulfate were mixed at a volume ratio of 1:1, followed by dark reaction overnight so that the resulting mixture turned blue-green. A working solution obtained by diluting the corresponding solution until an absorbance OD-734 reached about 0.7 was added with 10% of each lactic-acid bacteria lysate sample, followed by dark reaction for 10 min, after which the absorbance at a wavelength of 734 nm was measured, and each measured value was substituted into the following equation. ABTS radical-scavenging activity (%)={1−(ODsample/ODcontrol)}×100

[5] = tested on: Candida albicans KCTC7678 (CA); experiment: Disinfection power through coculture; format: cell-based; details: for disinfection power on CA: coculture 1:1, at 24 hr; for CA in coculture: coculture 1:1, at 48 hr
Description: (§2) The anti-vaginitis effect of the lactic-acid bacteria of the present disclosure was tested for disinfection power on the vaginitis pathogen through coculture. In the anti-CA experiment, CA at a concentration of about 2.5×10^6 CFU/ml and each of lactic-acid bacteria at a concentration of about 2.5×10^6 CFU/ml were mixed at a ratio of 1:1, and coculture thereof was carried out in a culture medium of YM and MRS mixed at 1:1. In the anti-GV experiment, GV at a concentration of about 1.0×10^8 CFU/ml and each of lactic-acid bacteria at a concentration of about 1.0×10^8 CFU/ml were mixed at a ratio of 1:1 and then inoculated into a 10% horse-serum BHI broth. Each coculture experiment was conducted for 48 hr, and portions of the samples were collected initially and every 24 hr, and a viable cell count was taken through a serial dilution method and a plate-spreading method. In the anti-CA experiment, in order to measure CA alone, a YM plate medium containing ampicillin at a concentration of 100 μg/ml was used. In the anti-GV experiment, CFU was measured by distinguishing the colony forms between GV and lactic-acid bacteria using a 5% rabbit blood BHI plate medium.

[6] = tested on: Gardnerella vaginalis KCTC5096 (GV); experiment: Disinfection power through coculture; format: cell-based; details: coculture 1:1, at 24 hr
Description: as §2

[7] = Heat resistance: viable cell count while bathing at 70° C. in a water bath; format: physicochemical
Description: In order to investigate the heat resistance of lactic-acid bacteria of the present disclosure, samples were obtained at 20 sec, 40 sec, 60 sec, and 80 sec while bathing at 70° C. in a water bath, a viable cell count was taken to thus determine resistance to heat, and the results thereof are shown in Table 2 below and in FIG. 2. In Table 2 and in FIG. 2, a viable cell count is represented as a Log10 CFU/ml value, and the number in parentheses represents the viability (%) compared to the initial count. Each result value is the average of three independent experiments.

[8] = tested on: IL-6 in mouse macrophage cell line RAW264.7; experiment: IL-6 ELISA, RAW264.7 cells treated with lactic-acid bacteria lysate; format: cell-based; details: lysate 100 μg/ml and 500 μg/ml, 24 hr
Description: In order to measure the immunological effects of K2, K6 and K8 lactic-acid bacteria, a cytokine quantification experiment using cells was performed. The cells that were used were a mouse macrophage cell line RAW264.7, and the medium used for each cell experiment was a Gibco® Dulbecco's Modified Eagle Medium (DMEM, Gibco, USA) supplemented with 10% fetal bovine serum (Gibco, USA) and 1% penicillin/streptomycin cocktail (Sigma-Aldrich, Germany). RAW264.7 cells cultured at about 80-90% confluency before material treatment were recovered and seeded in an amount of 1×10^6 cells per well of a 24-well plate. After seeding, culture was carried out in an environment of 37° C. and 5% CO2 for 24 hr in order to realize attachment to the 24-well plate and stabilization thereof. Each well was treated with the lactic-acid bacteria lysate at concentrations of 100 μg/ml and 500 μg/ml, and 1 μg/ml of lipopolysaccharide (LPS, Sigma-Aldrich, Germany) was used as a positive control, and an experimental group not treated with any material was used as a negative control. The cells were cultured at 37° C. and 5% CO2 for 24 hr after material treatment, and the cell culture solution was recovered, followed by enzyme-linked immunosorbent assay (ELISA) for IL-6 and TNF-α. Measurement was performed for IL-6 using a Mouse IL-6 Quantikine ELISA Kit (R&D systems, USA) and for TNF-α using a Mouse TNF-alpha Quantikine ELISA Kit (R&D systems, USA).

[9] = Initial, average of three independent experiments

Substance	hemolysis and clear zones [1]	coaggregation with CA [2]	coaggregation with GV [3]	ABTS radical-scavenging activity [4]	antioxidant activity, ranking among strains [4]	disinfection power on CA [5]	CA in coculture [5]	disinfection power on GV [6]	viability compared to the initial count ([7]; 70° C. water bath, 20 sec)	viable cell count ([7]; 70° C. water bath, 20 sec)	viability compared to the initial count ([7]; 70° C. water bath, 40 sec)	viable cell count ([7]; 70° C. water bath, 40 sec)	viability compared to the initial count ([7]; 70° C. water bath, 60 sec)	viable cell count ([7]; 70° C. water bath, 60 sec)	viability compared to the initial count ([7]; 70° C. water bath, 60 sec, listed as K6)	viability compared to the initial count ([7]; Initial)	viable cell count [7, 9]	IL-6 production compared to the control [8]	viability compared to the initial count ([7]; 70° C. water bath, 60 sec, listed as K8)	viability compared to the initial count ([7]; 70° C. water bath, 60 sec, listed as K2)
Lactobacillus plantarum ATG-K6 [Lb. plantarum ATG-K6]	not observed	58.57%	30.39%	exhibited radical-scavenging activity	greatest effect	99.49%	completely disappeared	92.50%	(97.27%	9.43 Log10 CFU/ml	(87.46%	9.38 Log10 CFU/ml	(68.88%	9.28 Log10 CFU/ml	68.88%	(100.00%	9.44 Log10 CFU/ml	induced	–	–
Lactobacillus plantarum ATG-K8 [Lb. plantarum ATG-K8]	not observed	57.88%	20.45%	exhibited radical-scavenging activity	next-greatest antioxidant activity	99.53%	completely disappeared	93.71%	(89.67%	9.49 Log10 CFU/ml	(75.26%	9.41 Log10 CFU/ml	(74.32%	9.41 Log10 CFU/ml	–	(100.00%	9.55 Log10 CFU/ml	induced	74.32%	–
Lactobacillus plantarum ATG-K2 [Lb. plantarum ATG-K2]	not observed	70.73%	32.72%	exhibited radical-scavenging activity	–	99.03%	completely disappeared	87.37%	(109.65%	8.99 Log10 CFU/ml	(91.33%	8.92 Log10 CFU/ml	(70.95%	8.80 Log10 CFU/ml	–	(100.00%	8.95 Log10 CFU/ml	induced	–	70.95%
